Series [1] concerns IL-6 levels in Human A549 lung epithelial cells. Put plainly: IL-1β-stimulated IL-6 in A549 cells. It is filed as cell-based. Particulars: additional results (footnote a). The procedure:
IL-6 IC50 and % Inhibition
Human A549 lung epithelial cells (American Type Culture Collection, Rockville, Md.) were cultured in Kaighn's F-12K medium with penicillin-streptomycin (10 U/mL) and 10% heat-inactivated fetal bovine serum (all from Invitrogen, Grand Island, N.Y.). A549 cells were plated at a density of 30,000 cells/well in 96-well plates and incubated overnight at 37° C. and with 5% CO2. The cells were serum-starved by replacing the growth medium with serum-free Kaighn's F-12K medium with penicillin-streptomycin (10 U/mL) and, again, incubating overnight at 37° C. and with 5% CO2. On the third day, the medium was replaced with fresh serum-free medium and the cells were incubated with or without compound (vehicle was DMSO at 0.1% maximum concentration) for approximately 1 hour and then stimulated with 1 ng/mL recombinant human IL-1β (R&D Systems, Minneapolis, Minn.) for 20 hours at 37° C. and with 5% CO2. Cell supernatants were collected for determination of IL-6 levels using MSD (Meso Scale Discovery, Gaithersburg, Md.) 96-well Single Spot plates as per the manufacturer's instructions. Plates were read with an MSD Sector Imager 6000. […] Vehicle was used to define the 0% inhibition control. Percent inhibition for each compound concentration, relative to these controls, was calculated using Excel (Microsoft, Redmond, Wash.). […]

Another series relates to LPS-induced serum TNFα. Put plainly: LPS-induced serum TNFα suppression, 28-day repeat dose mouse model. The format is in vivo, Swiss Webster female mice. Particulars: mice, oral gavage 28 days. The procedure:
(§1) The compounds were weighed and suspended in a vehicle of 0.5% methylcellulose/0.025% tween 20 (Sigma-Aldrich, St. Louis, Mo.). Compound suspensions were homogenized using a Polytron PT-3100 tissue homogenizer to create a very fine suspension and were then sonicated for 10 minutes using a water bath sonicator. Aliquots of each suspension were made for daily dosing at 0.2 ml/dose. Swiss Webster female mice, 10-12 weeks old, 28-29 grams, (Taconic, Germantown, N.Y.) were used in accordance with the guidelines of the Institutional Animal Care and Use Committee and in accordance with NIH guidelines on laboratory animal welfare. Mice were acclimated in the Pfizer animal facility for three to seven days prior to being utilized in a study. […] Each treatment group contained 5-10 mice. To establish a dosing regimen for the studies, a pilot pharmacodynamic time course experiment was conducted to quantify TNFα repression after a single ED80 dose.
(§2) Body weights were measured on the first and last day of each experiment. Blood samples were obtained after three weeks of dosing for a steady-state pharmacokinetic (PK) analysis. To assess compound effects on LPS-induced TNFα, all mice received an intraperitoneal injection of LPS (Salmonella typhosa, L-7895; Sigma-Aldrich, St. Louis) 2.5 hr after the last dose on day 28. Mice were sacrificed 90 minutes after LPS administration. Serum samples were quantified for osteocalcin and TNFα using the multiplex assays (Linco Research, Inc, St. Charles, Mo.; Luminex 100, Austin, Tex.). Samples were diluted 1:20 and the assay was run according to manufacturer's instructions. The osteocalcin standard was purchased separately (Biomedical Technologies Inc., Stoughton, Mass.). Mice were fasted for 4 hours before serum was collected for TNFα, and osteocalcin levels. For each experiment, outliers were detected by calculating the number of standard deviations from the mean of the group. If the value being examined was more than 2.5 standard deviations from the mean, it was excluded from the rest of the calculations.
(§3) The individual mouse percent inhibition values were fit to a four-parameter logistic model using the dose mean for each group.
(§4) ED50 and ED80 values were obtained for the various endpoints using a four-parameter logistic fit. For compounds which were tested multiple times, ED50 and ED80 values were obtained using four-parameter logistic fits of the combined data from multiple experiments.

The next series has as its system Serum osteocalcin. As to the kind of experiment: Serum osteocalcin suppression, 28-day repeat dose mouse model. The format is in vivo, Swiss Webster female mice. The following applies: mice. The procedure:
as §1, §2, §3, §4

Experimental findings from patent publication US7786097B2, “Tricyclic compounds, compositions and methods” (Pfizer Inc., priority 2007, dated 2010) are described below.

On to `C[C@]12C=CC(=O)C=C1CC[C@@H]1[C@@H]2[C@@H](O)C[C@@]2(C)[C@H]1CC[C@]2(O)C(=O)CO` [Prednisolone], for which the “IL-6 % Inhibition” value in series [1] was 100%. For the same compound, the “TNFα Suppression (ED80 dose)” value with LPS-induced serum TNFα was 2.10 mg/kg. Further, in the series with Serum osteocalcin (AUC 0-4 hr), the “Serum osteocalcin EAUC50” value was 560 ng·h/mL and the “Serum osteocalcin EAUC80” value was 1600 ng·h/mL. Besides, the “Osteocalcin Suppression (ED80 dose)” value with Serum osteocalcin (oral gavage 28 days, serum osteocalcin) was determined as 6.80 mg/kg.
